Laboratory results as given in paper PMC4903021 (Organic letters, 2016).

Target: T1, CazL (Chaetomium globosum, UniProt Q2GWL0)
T1 sequence (Q2GWL0 1-455): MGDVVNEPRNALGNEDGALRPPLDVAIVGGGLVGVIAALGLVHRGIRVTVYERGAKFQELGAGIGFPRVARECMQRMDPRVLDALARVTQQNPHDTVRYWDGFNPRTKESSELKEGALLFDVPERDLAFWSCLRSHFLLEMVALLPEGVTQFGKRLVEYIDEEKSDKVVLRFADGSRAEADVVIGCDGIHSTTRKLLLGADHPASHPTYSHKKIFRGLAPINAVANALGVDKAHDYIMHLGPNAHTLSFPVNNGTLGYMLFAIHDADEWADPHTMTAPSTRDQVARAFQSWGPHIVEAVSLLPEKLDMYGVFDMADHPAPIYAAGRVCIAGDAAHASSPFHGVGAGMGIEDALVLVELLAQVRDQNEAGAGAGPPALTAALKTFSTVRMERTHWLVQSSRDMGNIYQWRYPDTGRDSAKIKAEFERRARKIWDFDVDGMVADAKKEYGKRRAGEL
Assay: initial velocity kinetics of pyranoquinone formation
Assay type: biochemical
Details: formation of 5

cazaldehyde A [compound 1]
Km: 73 ± 9.93 µM
